Source: patent US20230158025A1 (UNIVERSITY OF UTAH RESEARCH FOUNDATION, priority 2020, published 2023)
Where two headings read alike, the source gives them in different places.

Assays:
[1] = target: T1, hGALK1m (Homo sapiens, UniProt P51570, E253A/K252A); experiment: in vitro hGALK1 activity assay of the structure-based optimisation (Example 12, Tables 17-20); assay type: biochemical
T1 construct: made in house; host or cells: E. coli HMS174
Method: In vitro hGALK1 activity assays were performed as previously described. Liu et al., Bioorg. Med. Chem. Lett. 25(3): 721-727 (2015), which is incorporated by reference herein for the specific teachings thereof. The biochemical assay was performed by coupling the activity of recombinant human or mouse GALK1 to the Kinase-Glo Plus luminescent ATP detection kit, using ATP depletion as a measure of GALK1 turnover. Specifically, three μL/well of ATP substrate solution (35 μM ATP) in assay buffer (20 mM HEPES pH 8.0, 5 mM MgCl2, 60 mM NaCl, 1 mM DTT, 0.01% BSA final concentration) was dispensed into 1536-well assay plates (Greiner, white solid-bottom medium-binding plates). Aliquots of compound (23 nL solubilized in DMSO) were transferred to the assay plates using a Kalypsys 1536-well pintool such that 11 concentrations with 1/3 dilutions ranging from 57.4 μM-0.97 nM are tested. One μL/well of GALK-galactose solution (5 nM GALK1, 100 μM galactose) in assay buffer was then added, yielding a final reaction volume of 4 μL/well. Following a 1-hour room temperature incubation, 4 μL of Kinase-Glo Plus detection reagent was added to provide an ATP-dependent luminescent readout (final assay volume: 8 μL/well). Luminescence was detected using a ViewLux plate reader (PerkinElmer) after a 10-minute incubation, using a 1 second exposure time and 2× binning.
The in vitro hGALK1 activity assay was performed as previously described. Liu et al., Bioorg. Med. Chem. Lett. 25(3): 721-727 (2015). For the measurement of cellular Gal-1P reduction, compounds at different concentrations were added to cultured patient fibroblast at 80% confluency. After incubating the compounds for 16 hours, 10 mM galactose was added to the culture. After another 4 hours, cells were washed with cold PBS buffer 3× and harvested for gal-1P measurement, according to the previously published method. Liu et al., Bioorg. Med. Chem. Lett. 25(3): 721-727 (2015).

[2] = target: recombinant human GALK1 (Homo sapiens, UniProt P51570); experiment: hGALK1 biochemical activity assay (Kinase-Glo Plus, ATP depletion)
recombinant human GALK1, sequence (P51570 whole entry): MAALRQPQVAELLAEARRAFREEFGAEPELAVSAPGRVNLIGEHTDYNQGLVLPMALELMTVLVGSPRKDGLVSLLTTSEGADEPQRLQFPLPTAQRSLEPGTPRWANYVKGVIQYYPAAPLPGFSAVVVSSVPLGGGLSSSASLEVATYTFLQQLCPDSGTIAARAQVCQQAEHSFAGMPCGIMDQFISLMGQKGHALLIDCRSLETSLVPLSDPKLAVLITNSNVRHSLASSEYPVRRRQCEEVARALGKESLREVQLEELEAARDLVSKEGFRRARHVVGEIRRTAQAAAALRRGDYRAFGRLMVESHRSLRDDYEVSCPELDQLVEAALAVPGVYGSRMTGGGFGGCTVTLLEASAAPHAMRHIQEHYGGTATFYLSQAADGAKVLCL
Procedure, shortened: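 Turnover is measured as ATP depletion by Kinase-Glo Plus luminescence after a 1 h room-temperature reaction. Compounds span 11 concentrations, 57.4 μM–0.97 nM, in final 20 mM HEPES pH 8.0 with 5 mM MgCl2. The substrate solution held 35 μM ATP; the added solution held 5 nM human or mouse GALK1 and 100 μM galactose.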

[3] = target: recombinant mouse GALK1 (Mus musculus, UniProt Q9R0N0); experiment: mGALK1 biochemical activity assay (Kinase-Glo Plus, ATP depletion)
recombinant mouse GALK1, sequence (Q9R0N0 whole entry): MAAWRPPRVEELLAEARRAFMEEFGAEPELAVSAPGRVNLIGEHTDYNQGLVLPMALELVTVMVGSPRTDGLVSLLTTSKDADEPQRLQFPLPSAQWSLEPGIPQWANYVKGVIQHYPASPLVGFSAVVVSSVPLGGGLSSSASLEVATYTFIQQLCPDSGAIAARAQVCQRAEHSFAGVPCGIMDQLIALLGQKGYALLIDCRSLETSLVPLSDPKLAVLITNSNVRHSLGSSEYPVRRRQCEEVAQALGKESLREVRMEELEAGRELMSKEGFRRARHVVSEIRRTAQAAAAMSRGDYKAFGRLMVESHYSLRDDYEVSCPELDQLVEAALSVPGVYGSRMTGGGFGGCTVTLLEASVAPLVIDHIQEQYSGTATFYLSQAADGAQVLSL
Procedure, shortened: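 Recombinant GALK1 (5 nM) with 100 μM galactose; GALK1 turnover read as ATP depletion by Kinase-Glo Plus luminescence. Reaction ran 1 h at room temperature before detection reagent was added.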

[4] = PAMPA permeability
[5] = aqueous kinetic solubility
[6] = rat microsomal stability (RLM)
[7] = Tables 2-15, 35 μM ATP, 100 μM galactose, 1 h, bracketed figure after some values (e.g. −1.2) is undefined and not reported, read-out: hGALK IC50
[8] = recombinant human GALK1, Kinase-Glo Plus ATP depletion, read-out: hGALK
[9] = recombinant mouse GALK1, Kinase-Glo Plus ATP depletion, read-out: mGALK
[10] = Tables 2-15, 35 μM ATP, 100 μM galactose, 1 h, bracketed figure after some values is undefined and not reported, read-out: mGALK IC50
[11] = recombinant human GALK1, Kinase-Glo Plus ATP depletion, bracketed figure in the cell, e.g. (−1.2), is not defined in the text shown, read-out: hGALK
[12] = recombinant mouse GALK1, Kinase-Glo Plus ATP depletion, bracketed figure in the cell, e.g. (−1.2), is not defined in the text shown, read-out: mGALK
[13] = microsomal stability half-life, minutes
[14] = recombinant human GALK1, Kinase-Glo Plus ATP depletion
[15] = recombinant mouse GALK1, Kinase-Glo Plus ATP depletion

T1 sequence (P51570 whole entry K252A/E253A): as the sequence (P51570 whole entry) above, with K252A, E253A counted along it

SMILES | IC50 [2, 7] [µM] | IC50 [2, 8] [µM] | IC50 [3, 9] [µM] | Perm. (1 × 10^−6 cm/sec) ([4]; PAMPA) | Sol. ([5]; aqueous kinetic solubility) [µg/mL] | Metab. Stabil. (m) ([6]; microsomal stability half-life) | IC50 [3, 10] [µM] | other results
CC1=C(C(=O)Nc2cc(C(=O)O)ccn2)C(c2ccccc2Cl)N=C(Nc2nc3ccccc3o2)N1 (stereo not drawn) [R-enantiomer of Compound 194] |  |  |  |  |  |  |  | IC50 ([1]; Tables 18-19 and text of Example 12): 15 µM
CC1=C(C(=O)NCc2cnn(C)c2)[C@@H](c2ccc(C)cc2Cl)N=C(Nc2nc3cccc(N)c3o2)N1 [S-enantiomer of Compound 83] |  |  |  |  |  |  |  | IC50 ([1]; Tables 18-20 and text of Example 12): 0.029 µM
CC1=C(C(=O)NCc2cccnc2)C(c2ccccc2Cl)N=C(Nc2nc3ccccc3o2)N1 (stereo not shown) [Compound 221, 2-(benzo[d]oxazol-2-ylamino)-4-(2-chlorophenyl)-6-methyl-N-(pyridin-3-ylmethyl)-1,4-dihydropyrimidine-5-carboxamide] | 6.85 | 6.85 | 19.3 | 1248.8 1 × 10^−6 cm/sec | <1 | 1.582 |  | 
COC(=O)c1ccc(CNC(=O)C2=C(C)NC(Nc3nc4ccccc4o3)=NC2c2ccccc2Cl)cc1 (stereo not shown) [Compound 223, methyl 4-((2-(benzo[d]oxazol-2-ylamino)-4-(2-chlorophenyl)-6-methyl-1,4-dihydropyrimidine-5-carboxamido)methyl)benzoate] | 4.32 | 4.32 | 8.63 | 543.4 1 × 10^−6 cm/sec | <1 | 8.495 | 8.63 | 
CC1=C(C(=O)NCc2ccc(CO)cc2)C(c2ccccc2Cl)N=C(Nc2nc3ccccc3o2)N1 (stereo not shown) [Compound 228, 2-(benzo[d]oxazol-2-ylamino)-4-(2-chlorophenyl)-N-(4-(hydroxymethyl)benzyl)-6-methyl-1,4-dihydropyrimidine-5-carboxamide] | 6.85 |  | 15.3 | 867.3 1 × 10^−6 cm/sec | <1 | 13.8241 | 15.3 | 
CCOC(=O)N1C(Nc2nc3ccccc3o2)=NC(c2ccccc2Cl)C(C(=O)Nc2cc(C(=O)O)ccn2)=C1C (stereo not shown) [Compound 274, 2-(2-(benzo[d]oxazol-2-ylamino)-4-(2-chlorophenyl)-1-(ethoxycarbonyl)-6-methyl-1,4-dihydropyrimidine-5-carboxamido)isonicotinic acid] |  |  |  | <1 1 × 10^−6 cm/sec | >85 |  |  | IC50 [2, 11]: 9.68 µM; IC50 [3, 12]: 19.3 µM; Metab. Stabil. (m) [6, 13]: >30 m
CC1=C(C(=O)Nc2nncs2)C(c2nn(C)cc2Br)N=C(Nc2nc3ccccc3o2)N1 (stereo not shown) [Compound 265, 2-(benzo[d]oxazol-2-ylamino)-4-(4-bromo-1-methyl-1H-pyrazol-3-yl)-6-methyl-N-(1,3,4-thiadiazol-2-yl)-1,4-dihydropyrimidine-5-carboxamide] |  |  |  | 1044.0 1 × 10^−6 cm/sec | 6.4 |  |  | IC50 [2, 11]: 3.43 µM; IC50 [3, 12]: 19.3 µM; Metab. Stabil. (m) [6, 13]: >30 m
CC1=C(C(=O)NCc2cnn(C)c2)C(c2ccc(Cl)cc2Cl)N=C(Nc2nc3cccc(N)c3o2)N1 (stereo not shown) [Compound 123, 2-((7-aminobenzo[d]oxazol-2-yl)amino)-4-(2,4-dichlorophenyl)-N-((1-methyl-1H-pyrazol-4-yl)methyl)-6-methyl-1,4-dihydropyrimidine-5-carboxamide] |  | 1.09 | 6.85 | 142.4 1 × 10^−6 cm/sec | 15.63 | 17.76 |  | 
COc1ccc2oc(NC3=NC(c4ccccc4Cl)C(C(=O)Nc4nnc(-c5cccnc5)s4)=C(C)N3)nc2c1 (stereo not shown) [Compound 95, 4-(2-chlorophenyl)-2-((5-methoxybenzo[d]oxazol-2-yl)amino)-6-methyl-N-(5-(pyridin-3-yl)-1,3,4-thiadiazol-2-yl)-1,4-dihydropyrimidine-5-carboxamide] |  |  |  |  |  |  |  | hGALK (μM) [2, 14]: in- active; mGALK (μM) [3, 15]: in- active; Perm. (1 × 10^−6 cm/sec) [4]: <19.1 1 × 10^−6 cm/sec; Sol. [5]: <1 µg/mL; Metab. Stabil. (m) ([6]; microsomal half-life): >30 m
CC1=C(S(C)(=O)=O)C(c2ccccc2Cl)N=C(Nc2nc3ccccc3o2)N1 (stereo not shown) [Compound 243, N-(4-(2-chlorophenyl)-6-methyl-5-(methylsulfonyl)-1,4-dihydropyrimidin-2-yl)benzo[d]oxazol-2-amine] |  | 13.7 | 19.3 | 42.78 1 × 10^−6 cm/sec | <1 | 9.37 |  | 
COC(=O)c1csc(NC(=O)C2=C(C)NC(Nc3nc4ccccc4o3)=NC2c2ccccc2Cl)n1 (stereo not shown) [Compound 186, methyl 2-(2-(benzo[d]oxazol-2-ylamino)-4-(2-chlorophenyl)-6-methyl-1,4-dihydropyrimidine-5-carboxamido)thiazole-4-carboxylate] | 12.2 | 12.2 | 13.7 | 65.6 1 × 10^−6 cm/sec | <1 | >30 | 13.7 | 

Further lines, with some results ahead:

IC50 [2, 7] [µM] | IC50 [2, 8] [µM] | IC50 [3, 9] [µM] | Perm. (1 × 10^−6 cm/sec) ([4]; PAMPA) | Sol. ([5]; aqueous kinetic solubility) [µg/mL] | Metab. Stabil. (m) ([6]; microsomal stability half-life) | IC50 [3, 10] [µM] | SMILES | other results
4.32 | 4.32 | 6.85 | <1 1 × 10^−6 cm/sec | 60.0 | >30 | 6.85 | CC1=C(C(=O)Nc2cccc(C(=O)O)n2)C(c2ccccc2Cl)N=C(Nc2nc3ccccc3o2)N1 (stereo not shown) [Compound 195, 6-(2-(benzo[d]oxazol-2-ylamino)-4-(2-chlorophenyl)-6-methyl-1,4-dihydropyrimidine-5-carboxamido)picolinic acid] | 
 | 3.43 | 19.3 |  |  |  |  | CC1=C(C(=O)Nc2ccccn2)C(c2ccccc2Cl)N=C(Nc2nc3cccc(N)c3o2)N1 (stereo not shown) [Compound 81, 2-((7-aminobenzo[d]oxazol-2-yl)amino)-4-(2-chlorophenyl)-6-methyl-N-(pyridin-2-yl)-1,4-dihydropyrimidine-5-carboxamide] | Perm. (1 × 10^−6 cm/sec) [4]: 271.13 1 × 10^−6 cm/sec; Sol. [5]: <1 µg/mL; Metab. Stabil. (m) ([6]; microsomal half-life): >30 m
 |  |  | 250.4 1 × 10^−6 cm/sec | <1 | 25.55 |  | COC(=O)c1ccnc(NC(=O)C2=C(C)NC(Nc3nc4ccccc4o3)=N[C@@H]2c2ccccc2Cl)c1 [Compound 207, (S)-methyl 2-(2-(benzo[d]oxazol-2-ylamino)-4-(2-chlorophenyl)-6-methyl-1,4-dihydropyrimidine-5-carboxamido)isonicotinate] | hGALK (μM) [2, 14]: in- active; mGALK (μM) [3, 15]: in- active
 | 3.06 | 10.9 | 3.3 1 × 10^−6 cm/sec | 25.4 | >30 |  | CC1=C(C(=O)Nc2cc(C(=O)O)ccc2F)C(c2ccccc2Cl)N=C(Nc2nc3ccccc3o2)N1 (stereo not shown) [Compound 210, 3-(2-(benzo[d]oxazol-2-ylamino)-4-(2-chlorophenyl)-6-methyl-1,4-dihydropyrimidine-5-carboxamido)-4-fluorobenzoic acid] | 
7.69 | 7.69 | 10.9 | 49.2 1 × 10^−6 cm/sec | <1 | >30 | 10.9 | COC(=O)c1cc(NC(=O)C2=C(C)NC(Nc3nc4ccccc4o3)=NC2c2ccccc2Cl)ccn1 (stereo not shown) [Compound 204, methyl 4-(2-(benzo[d]oxazol-2-ylamino)-4-(2-chlorophenyl)-6-methyl-1,4-dihydropyrimidine-5-carboxamido)picolinate] | 
